Data published in patent publication US20260144802A1, “POST-OPERATIVE DELIRIUM SUPPRESSANT” (priority 2022, published 2026).

Experiments:
IL-1β mRNA = IL-1β mRNA expression in the hippocampus by RT-PCR after laparotomy; format: in vivo, rat; settings: Example 4, 12 hours after surgery, vs laparotomy+solvent, FIG. 5
Experimental: (§1) Forty (40) SD male elderly rats of 19 to 24 months of age were randomly divided into a control group, an ALLO administration group, a laparotomy+solvent administration group, and a laparotomy+ALLO administration group by 10 rats.
Rats in the laparotomy group were subjected to laparotomy in the same manner as in Example 1. To rats in the laparotomy+ALLO administration group, 10 mg/kg of brexanolone was intraperitoneally administered immediately after surgery. To rats in the laparotomy+solvent administration group, only the same amount of solvent was administered instead of brexanolone.
Rats in the control group and the ALLO administration group were not subjected to laparotomy, and only subjected to anesthesia with isoflurane and local infiltration anesthesia with ropivacaine in the same manner. […]
Twelve (12) hours after surgery, the hippocampus, which is considered to be strongly related to an onset of post-operative delirium, was extracted, and mRNA expression levels of IL-1β and TNFα, which are inflammatory cytokines suspected to be related to an onset mechanism of post-operative delirium, were measured by an RT-PCR method. After the trace memory conditioning test of Example 1, the hippocampus was extracted at 48 hours after the laparotomy, and expression levels of IL-1 and TNFα in the hippocampus sample were measured by an ELISA method. […]

[1] = test system: post-operative delirium model rats; experiment: Trace memory conditioning test (trace memory test and context memory test) in aged post-operative delirium model rats; format: in vivo, rat; settings: SD male elderly rats with laparotomy, 10 mg/kg intraperitoneally immediately after surgery, vs laparotomy+solvent
Source text: as §1
Rats in the laparotomy+solvent administration group and the laparotomy+ALLO administration group were anesthetized with 1.5 to 2.0% isoflurane, and then underwent a median incision of 2 cm in the abdomen. The small intestine was pulled out by about 5 cm from the laparotomy site and extended with a finger for 3 minutes. Next, the abdomen was closed, and local infiltration anesthesia was applied to the wound with 0.2% ropivacaine for post-operative pain. To rats in the laparotomy+ALLO administration group, 10 mg/kg of brexanolone was intraperitoneally administered immediately after surgery. To rats in the laparotomy+solvent administration group, only the same amount of solvent was administered instead of brexanolone. […]
Twelve (12) hours after acquisition of memory of stimulation, a “trace memory test” was performed. Specifically, “only sound stimulation” was performed under different gauges, and freezing behavior at that time was measured.
Finally, 4 hours after the trace memory test, rats were placed under a cage similar to the initial memory acquisition cage and freezing behavior of the rats without stimulation was measured as a “context memory test”.

SMILES	relative expression level of IL-1β mRNA in the hippocampus (IL-1β mRNA; 3 mg/kg orally 30 minutes before anesthesia)	relative expression level of IL-1β mRNA in the hippocampus (IL-1β mRNA; 10 mg/kg intraperitoneally 30 minutes before anesthesia)	attention (proportion of freezing behavior time, trace memory test) ([1]; FIG. 1(1))	cognitive abilities (freezing behavior, context memory test) ([1]; FIG. 1(2))
C[C@@]1(O)CC[C@H]2[C@H](CC[C@@H]3[C@@H]2CC[C@]2(C)[C@@H](C(=O)Cn4cc(C#N)cn4)CC[C@@H]32)C1 [zuranolone]	significantly reduce			
CC(=O)[C@H]1CC[C@H]2[C@@H]3CC[C@H]4C[C@H](O)CC[C@]4(C)[C@H]3CC[C@]12C [brexanolone]		significantly reduce	significantly higher	significantly higher
